Data as given in PubChem BioAssay (NCI).
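Results reflect a 48-hour exposure of cells in 96-well plates to compound at five concentrations. GI50 marks 50% less growth. TGI is the concentration that stops growth completely.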

What was measured:
Test in all cases: growth of human tumour cells (NCI), 48 h
[1] = system: SN12C renal
[2] = system: SNB-75 CNS
[3] = system: 786-0 renal
[4] = system: UACC-257 melanoma
[5] = system: UO-31 renal
[6] = system: TK-10 renal
[7] = system: HCT-116 colon
[8] = system: OVCAR-3 ovarian
[9] = system: MDA-MB-435
[10] = system: NCI/ADR-RES ovarian

CC(=O)O[C@H]1CC[C@@]2(C)C(=CC[C@H]3C4=CC=C(C(C)=O)[C@@]4(C)CCC32)C1 (some centres undefined)
TGI [1]: > 100 µM | TGI [2]: > 100 µM | TGI [3]: > 100 µM | TGI [4]: 62.1 µM | TGI [5]: > 100 µM | TGI [6]: > 100 µM | TGI [7]: 36.9 µM | TGI [8]: > 100 µM

COc1cccc(C(=O)N2CCc3ccccc32)c1OC
TGI [1]: > 100 µM | TGI [2]: > 100 µM | TGI [3]: > 100 µM | TGI [4]: > 100 µM | TGI [5]: > 100 µM | TGI [6]: > 100 µM | TGI [7]: > 100 µM | TGI [8]: > 100 µM

CCCCCCCC(=O)OC(CBr)COC(=O)C(C)(C)C (centres undefined)
TGI [1]: > 100 µM | TGI [2]: 68.8 µM | TGI [3]: > 100 µM | TGI [4]: > 100 µM | TGI [5]: > 100 µM | TGI [6]: > 100 µM | TGI [7]: > 100 µM | TGI [8]: > 100 µM

C1CSCCCSCCSCCCSC1
TGI [1]: > 100 µM | TGI [2]: > 100 µM | TGI [3]: > 100 µM | TGI [4]: > 100 µM | TGI [5]: > 100 µM | TGI [9]: > 100 µM | TGI [6]: > 100 µM | TGI [7]: > 100 µM

Nc1nnc2cc(Cl)ccc2n1
GI50 [1]: 16 µM | TGI [1]: > 100 µM | GI50 [2]: 9.06 µM | TGI [2]: > 100 µM | GI50 [3]: > 100 µM | TGI [3]: > 100 µM | GI50 [4]: > 100 µM | TGI [4]: > 100 µM | GI50 [5]: 30.2 µM | TGI [5]: > 100 µM | GI50 [9]: > 100 µM | TGI [9]: > 100 µM | GI50 [7]: > 100 µM | TGI [7]: > 100 µM | GI50 [10]: > 100 µM | TGI [10]: > 100 µM | GI50 [8]: > 100 µM | TGI [8]: > 100 µM

CCC(=O)C(C)C1=Nc2nnc(CCCCCCCc3nnc4n3C(=O)C(C(C)C(=O)CC)=N4)n2C1=O (centres undefined)
TGI [1]: > 100 µM | TGI [2]: > 100 µM | TGI [3]: > 100 µM | TGI [4]: > 100 µM | TGI [5]: > 100 µM | TGI [6]: > 100 µM | TGI [7]: > 100 µM | TGI [8]: > 100 µM

COC1OC(CO)C(O)C(O)C1Br (centres undefined)
TGI [1]: > 100 µM | TGI [3]: > 100 µM | TGI [4]: > 100 µM | TGI [6]: > 100 µM | TGI [7]: > 100 µM | TGI [8]: > 100 µM

O=C(c1ccc2ncc(-c3nc(NC4CC4)ncc3F)n2c1)N1CCOCC1
GI50 [1]: 2.52 µM | TGI [1]: 11.8 µM | GI50 [2]: 1.47 µM | TGI [2]: 3.58 µM | GI50 [3]: 3.06 µM | TGI [3]: 27.5 µM | GI50 [4]: 2.71 µM | TGI [4]: 8.43 µM | GI50 [5]: 2.66 µM | TGI [5]: 13.6 µM | GI50 [9]: 3.11 µM | TGI [9]: 14.4 µM | GI50 [7]: 1.23 µM | TGI [7]: 10.4 µM | GI50 [10]: 2.92 µM | TGI [10]: 19.2 µM | GI50 [8]: 2.21 µM | TGI [8]: 7.22 µM

O=c1cc2ccccc2nn1Cc1ccccc1Cl
TGI [1]: > 100 µM | TGI [2]: 93.8 µM | TGI [3]: > 100 µM | TGI [4]: > 100 µM | TGI [5]: > 100 µM | TGI [6]: > 100 µM | TGI [7]: > 100 µM | TGI [8]: > 100 µM

CN(CN1C(=O)C2Cc3ccccc3CN2C1=O)c1ccccn1 (centres undefined)
TGI [1]: > 100 µM | TGI [3]: > 100 µM | TGI [5]: > 100 µM | TGI [6]: > 100 µM | TGI [8]: > 100 µM

O=C(O)/C(=C/c1c(O)ccc2ccccc12)c1csc(-c2nc(/C(=C\c3c(O)ccc4ccccc34)C(=O)O)cs2)n1
TGI [2]: 23.2 µM | TGI [3]: 26.8 µM | TGI [4]: 40.9 µM | TGI [5]: 6.87 µM | TGI [6]: 58 µM | TGI [7]: 23.3 µM | TGI [8]: 31.3 µM

C1CCN(c2nsc(N3CCCCC3)n2)CC1
TGI [1]: > 100 µM | TGI [2]: > 100 µM | TGI [3]: > 100 µM | TGI [4]: > 100 µM | TGI [5]: > 100 µM | TGI [6]: > 100 µM | TGI [7]: > 100 µM

COc1cc(/C=C2\CC3C4CC=C5C[C@@H](OC(C)=O)CC[C@]5(C)C4CC[C@]3(C)C2=O)ccc1OCCCn1ccnc1 (some centres undefined)
GI50 [1]: 8.99 µM | TGI [1]: 16.6 µM | GI50 [3]: 8.87 µM | TGI [3]: 16 µM | GI50 [4]: 10.4 µM | TGI [4]: 22.5 µM | GI50 [5]: 9.14 µM | TGI [5]: 19.9 µM | GI50 [9]: 10.3 µM | TGI [9]: 26.6 µM | GI50 [6]: 7.08 µM | TGI [6]: 17.3 µM | GI50 [7]: 13.4 µM | TGI [7]: 29.6 µM | GI50 [10]: 8.94 µM | TGI [10]: 19.5 µM | GI50 [8]: 9.79 µM | TGI [8]: 21.2 µM

O=C(Nc1ccc(Cl)cc1)c1ccc(NC2=C(Cl)C(=O)N(Cc3ccccc3)C2=O)cc1
GI50 [1]: 7.67 µM | TGI [1]: 25.1 µM | GI50 [2]: 20.1 µM | TGI [2]: 52.5 µM | GI50 [3]: 10.8 µM | TGI [3]: 24.4 µM | GI50 [4]: 22.2 µM | TGI [4]: 63.5 µM | GI50 [5]: 14.7 µM | TGI [5]: 29.8 µM | GI50 [9]: 12.7 µM | TGI [9]: 33.1 µM | GI50 [7]: 2.41 µM | TGI [7]: 7.59 µM | GI50 [10]: 4.14 µM | TGI [10]: 14.8 µM | GI50 [8]: 12.6 µM | TGI [8]: 28 µM

CN1c2ccccc2N(C)C2C1N(C)c1ccccc1N2C (centres undefined)
TGI [1]: > 100 µM | TGI [2]: 71.1 µM | TGI [3]: > 100 µM | TGI [4]: > 100 µM | TGI [5]: 82.2 µM | TGI [6]: > 100 µM | TGI [7]: 42.4 µM | TGI [8]: 50.2 µM

COc1cc2noc(-c3ccccc3)c2cc1OC
TGI [1]: > 100 µM | TGI [2]: 35.4 µM | TGI [3]: > 100 µM | TGI [4]: > 100 µM | TGI [5]: > 100 µM | TGI [6]: > 100 µM | TGI [7]: > 100 µM

CC(=O)OCCOCNC(=S)N/N=C(\C)c1cnc2ccccc2n1
TGI [1]: > 100 µM | TGI [2]: > 100 µM | TGI [3]: > 100 µM | TGI [4]: > 100 µM | TGI [5]: > 100 µM | TGI [6]: > 100 µM | TGI [7]: > 100 µM | TGI [8]: > 100 µM

Cc1nc2c(n1C(C)(C)C)C(=O)c1ccccc1C2=O
TGI [1]: > 100 µM | TGI [2]: > 100 µM | TGI [3]: > 100 µM | TGI [4]: > 100 µM | TGI [5]: > 100 µM | TGI [6]: > 100 µM | TGI [7]: > 100 µM | TGI [8]: > 100 µM

C(CCC[Te][Te]CCCCCCOC1CCCCO1)CCOC1CCCCO1 (centres undefined)
TGI [1]: 29.4 µM | TGI [2]: 33.7 µM | TGI [3]: 29.4 µM | TGI [4]: 20.7 µM | TGI [5]: 77.3 µM | TGI [6]: 95.1 µM | TGI [7]: 55.8 µM

O=C(Nc1nc2ccccc2n1Cc1ccccc1)NC12CC3CC(CC(C3)C1)C2
TGI [1]: > 100 µM | TGI [2]: 49.8 µM | TGI [3]: 92.9 µM | TGI [4]: > 100 µM | TGI [5]: > 100 µM | TGI [6]: > 100 µM | TGI [7]: > 100 µM | TGI [8]: > 100 µM

COc1cc(/C=C\[N+](=O)[O-])ccc1OCc1ccccc1
GI50 [1]: 2.77 µM | TGI [1]: 8.42 µM | GI50 [2]: 1.63 µM | TGI [2]: 6.79 µM | GI50 [3]: 1.84 µM | TGI [3]: 3.74 µM | GI50 [4]: 2.08 µM | TGI [4]: 5.83 µM | GI50 [5]: 1.54 µM | TGI [5]: 3.06 µM | GI50 [9]: 2.37 µM | TGI [9]: 10.3 µM | GI50 [6]: 1.93 µM | TGI [6]: 5.27 µM | GI50 [10]: 3.5 µM | TGI [10]: 24.9 µM | GI50 [8]: 1.62 µM | TGI [8]: 3.71 µM
